The record followed here is ChEMBL document CHEMBL5360646, “Optimization of M3 Antagonist-PDE4 Inhibitor (MAPI) Dual Pharmacology Molecules for the Treatment of COPD” (J Med Chem, 2023).

The target in data set [1] is Muscarinic acetylcholine receptor M3 (Homo sapiens, UniProt P20309). Kind of data set: Displacement of [3H]N-methylscopolamine chloride from human muscarinic M3 receptor incubated for 2 hrs by radioligand binding assay. In general terms: In a radioligand displacement assay an active substance lowers the binding of a labelled ligand.
Chain of Muscarinic acetylcholine receptor M3 (P20309 whole entry): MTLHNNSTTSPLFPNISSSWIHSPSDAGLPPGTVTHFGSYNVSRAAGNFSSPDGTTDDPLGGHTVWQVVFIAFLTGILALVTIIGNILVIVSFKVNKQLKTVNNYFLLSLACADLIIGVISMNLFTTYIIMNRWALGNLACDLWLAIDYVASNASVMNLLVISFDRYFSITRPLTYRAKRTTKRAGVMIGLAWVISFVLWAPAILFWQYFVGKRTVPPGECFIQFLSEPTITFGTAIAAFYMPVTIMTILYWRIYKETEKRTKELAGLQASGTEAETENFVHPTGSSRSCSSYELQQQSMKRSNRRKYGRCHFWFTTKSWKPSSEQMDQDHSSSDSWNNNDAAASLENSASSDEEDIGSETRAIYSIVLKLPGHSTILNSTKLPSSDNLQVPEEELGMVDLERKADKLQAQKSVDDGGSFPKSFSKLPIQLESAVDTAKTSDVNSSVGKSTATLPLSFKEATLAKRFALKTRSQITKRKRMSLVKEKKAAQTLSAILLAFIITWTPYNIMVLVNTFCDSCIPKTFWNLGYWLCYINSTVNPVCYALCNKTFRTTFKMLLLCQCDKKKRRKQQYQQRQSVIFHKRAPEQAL
The next data set concerns Trachea. Put plainly: Bronchoconstriction activity in Sprague-Dawley rat trachea assessed as inhibition of carbachol-induced tracheal contraction. In kind it is functional, tissue-based. To be noted: Rattus norvegicus, Sprague-Dawley, Trachea.
In data set [2] the target is 3',5'-cyclic-AMP phosphodiesterase 4B (Homo sapiens, UniProt Q07343). Kind of data set: Inhibition of human recombinant PDE4B2 expressed in baculovirus expression system using cAMP as substrate incubated for 2 hrs by HTRF assay. (In general: TR-FRET usually uses a lanthanide donor and a delayed reading to cut background.)
Chain of 3',5'-cyclic-AMP phosphodiesterase 4B (Q07343 whole entry): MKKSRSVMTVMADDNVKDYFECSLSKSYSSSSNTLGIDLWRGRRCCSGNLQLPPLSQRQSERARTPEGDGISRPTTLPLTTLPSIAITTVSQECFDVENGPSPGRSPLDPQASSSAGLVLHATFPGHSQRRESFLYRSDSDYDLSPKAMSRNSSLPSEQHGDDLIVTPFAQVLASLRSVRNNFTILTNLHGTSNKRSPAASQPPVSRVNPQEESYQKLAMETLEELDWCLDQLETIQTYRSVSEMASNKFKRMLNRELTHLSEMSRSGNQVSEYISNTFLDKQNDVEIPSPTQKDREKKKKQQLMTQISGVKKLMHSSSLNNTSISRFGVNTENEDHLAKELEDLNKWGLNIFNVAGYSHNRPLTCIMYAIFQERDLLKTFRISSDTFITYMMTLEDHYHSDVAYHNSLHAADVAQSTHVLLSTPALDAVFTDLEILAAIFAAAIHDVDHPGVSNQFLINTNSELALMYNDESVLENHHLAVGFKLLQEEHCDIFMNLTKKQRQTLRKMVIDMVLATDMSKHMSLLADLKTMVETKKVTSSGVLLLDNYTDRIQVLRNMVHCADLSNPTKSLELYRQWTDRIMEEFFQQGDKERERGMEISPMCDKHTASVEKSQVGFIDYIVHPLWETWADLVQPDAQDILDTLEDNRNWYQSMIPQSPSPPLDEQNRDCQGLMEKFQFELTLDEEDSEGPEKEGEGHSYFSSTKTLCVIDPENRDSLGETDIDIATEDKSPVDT
The nature of data set [3]: Antiinflammatory activity against LPS-stimulated human PBMC cells assessed reduction in TNFalpha level incubated for 18 hrs by ELISA analysis. It is filed as functional, cell-based. To be noted: Homo sapiens, PBMC, 18 h. (In an ELISA, binding on a coated surface is turned into a signal by an enzyme label.)
The nature of data set [4]: Metabolic stability in human lung S9 fraction assessed as half life at 1 uM and measured upto 60 mins in presence of NADPH by LC-MS/MS analysis. The conditions noted are these: lung S9 fraction. It is filed as ADME, subcellular.
The nature of data set [5]: Metabolic stability in rat lung S9 fraction assessed as half life at 1 uM and measured upto 60 mins in presence of NADPH by LC-MS/MS analysis. It is filed as ADME, subcellular. The conditions noted are these: lung S9 fraction.
A short description of data set [6]: Metabolic stability in human plasma assessed as half life at 5 uM and measured upto 180 mins by HPLC-MS/MS analysis. It is filed as ADME, cell-free.
Data set [7] can be described thus: Metabolic stability in rat plasma assessed as half life at 5 uM and measured upto 180 mins by HPLC-MS/MS analysis. It is filed as ADME, cell-free.
Data set [8] in a line: Metabolic stability in human liver microsomes assessed as intrinsic clerance at 1 uM and measured upto 60 mins by HPLC-MS/MS analysis. It is filed as ADME, Microsome. The conditions noted are these: liver microsomes, read-out: CLH.
Data set [9] can be described thus: Metabolic stability in rat liver microsomes assessed as intrinsic clerance at 1 uM and measured upto 60 mins by HPLC-MS/MS analysis. To be noted: liver microsomes, read-out: CLH. It is filed as ADME, Microsome.
The test system of data set [10] is Rattus norvegicus. Kind of data set: Anti-bronchospastic activity in carbachol-induced bronchospasm Sprague-Dawley rat model assessed as inhibition of carbachol-induced bronchoconstriction administered IT(Intratracheal) for 1 hr prior to carbachol challenge. In kind it is functional. The conditions noted are these: Rattus norvegicus, Sprague-Dawley, read-out: ED50.

Data set [11] deals with Rattus norvegicus. Kind of data set: Anti-bronchospastic activity in carbachol-induced bronchospasm Sprague-Dawley rat model assessed as inhibition of carbachol-induced bronchoconstriction at 3 nmol/kg, IT(Intratracheal) administered 1 hr prior to carbachol challenge. In kind it is functional. On the set-up: scale not given: the % may be the effect or the level left.
Data set [12] concerns Rattus norvegicus. Put plainly: Anti-bronchospastic activity in carbachol-induced bronchospasm Sprague-Dawley rat model assessed as inhibition of carbachol-induced bronchoconstriction at 3 nmol/kg, IT(Intratracheal) administered 16 hr prior to carbachol challenge. On the set-up: scale not given: the % may be the effect or the level left. It is filed as functional.
Data set [13] relates to Rattus norvegicus. Kind of data set: Anti-inflammatory activity against OVA-sensitized Brown-Norway rat airway inflammation model assessed as inhibition of OVA-induced eosinophil influx administered IT(Intratracheal) 2 hrs prior to OVA challenge. It is filed as functional.
Data set [14] in a line: Ratio of ED50 for Anti-inflammatory activity against OVA-sensitized Brown-Norway rat airway inflammation model to ED50 for Anti-bronchospastic activity in carbachol-induced bronchospasm Sprague-Dawley rat model. In kind it is functional.
A short description of data set [15]: Antiinflammatory activity against LPS-stimulated rat PBMC cells assessed reduction in TNFalpha level incubated for 18 hrs by ELISA analysis. In kind it is functional, cell-based.
The test system of data set [16] is Rattus norvegicus. Kind of data set: Anti-inflammatory activity against OVA-sensitized Brown-Norway rat airway inflammation model assessed as inhibition of OVA-induced eosinophil influx at 100 nmol/kg,IT(Intratracheal) pretreated 2 hrs prior to OVA challenge by automated cell counter analysis. In kind it is functional. On the set-up: scale not given: the % may be the effect or the level left.

The subject of data set [17] is Rattus norvegicus. Put plainly: Anti-inflammatory activity against OVA-sensitized Brown-Norway rat airway inflammation model assessed as inhibition of OVA-induced eosinophil influx at 1000 nmol/kg,IT(Intratracheal) pretreated 24 hrs prior to OVA challenge and measured after 48 hrs by automated cell counter analysis. In kind it is functional. To be noted: time 72 hrs. On the set-up: scale not given: the % may be the effect or the level left.

A short description of data set [18]: Toxicity in ferret assessed as appearance of nausea-like behavior at 10 nmol/kg, IT(Intratracheal) and measured for 4 hrs by behavioral analysis. On the set-up: species or system Mustela putorius furo. The conditions noted are these: in vivo, inhaled_or_intranasal.
Data set [19] is described as follows: Toxicity in ferret assessed as emetic response at 10 nmol/kg, IT(Intratracheal) and measured for 4 hrs by behavioral analysis. To be noted: in vivo, inhaled_or_intranasal. On the set-up: species or system Mustela putorius furo.
Data set [20] can be described thus: Toxicity in ferret assessed as appearance of nausea-like behavior at 10 nmol/kg,po and measured for 4 hrs by behavioral analysis. On the set-up: species or system Mustela putorius furo. The conditions noted are these: in vivo.
The nature of data set [21]: Toxicity in ferret assessed as emetic response at 10 nmol/kg,po and measured for 4 hrs by behavioral analysis. On the set-up: species or system Mustela putorius furo. To be noted: in vivo.
Data set [22] is described as follows: Toxicity in pilocarpine hydrochloride induced salivation Sprague-Dawley rat model assessed as inhibition of salivary secretion at 3 mM,INH for 10 mins. To be noted: Sprague-Dawley, in vivo, inhaled or intranasal, read-out: Activity.

As usually defined, the Ki is a measure of affinity in units of concentration, obtained from inhibition or displacement. In general, IC50 refers to the midpoint of a concentration-inhibition curve. The half-life is how long it takes for the measured level to halve. As a reminder, the ED50 is the midpoint of the dose-response relation. Turning to `COc1ccc([C@H](Cc2c(Cl)c[n+]([O-])cc2Cl)OC(=O)c2ccc(CN[C@@H](C(=O)O[C@H]3CN4CCC3CC4)c3ccccc3)s2)cc1OC`, the affinity in [1], expressed as Ki, was 0.0631 nM. Further, the half-maximal inhibitory concentration (IC50) is 1 nM with Trachea, 1.58 nM in data set [2], 1.58 nM in data set [3] and 2 nM in [15]. The half-life at 1 µM in [4] came out at 69 min; in data set [5], 15 min. Also, the half-life at 5 µM in [6] was 11 min; in data set [7], 9 min. Further, the results for the microsomal CLint at 1 µM in data set [8] and in data set [9] were 213 µL/min/mg and 126 µL/min/mg, respectively. For the same molecule, the results for the ED50 with Rattus norvegicus [10] and in the data set with Rattus norvegicus [13] were 0.0007 µmol/kg and 0.03 µmol/kg, respectively. Further, the Activity in the data set on Rattus norvegicus [11] was determined as 74%; in the data set with Rattus norvegicus [12], 67%. The “Ratio ED50” value in [14] was found to be 42.

For the molecule `C[C@@H]1C[C@H]2[C@@H]3C[C@H](F)C4=CC(=O)C=C[C@]4(C)[C@@]3(F)[C@@H](O)C[C@]2(C)[C@@]1(OC(=O)c1ccco1)C(=O)SCF` [FLUTICASONE FUROATE], the Activity in the data set with Rattus norvegicus [16] and in the data set with Rattus norvegicus [17] was above 100% throughout.

For the molecule `O=C(Nc1c(Cl)cncc1Cl)c1ccc(OC(F)F)c(OCC2CC2)c1` [ROFLUMILAST], the Activity result in data set [18], in [19], in data set [20] and in data set [21] was “Toxic” in each case.

Take `C[N+]1(C)[C@@H]2C[C@@H](OC(=O)C(O)(c3cccs3)c3cccs3)C[C@H]1[C@@H]1O[C@@H]12` [TIOTROPIUM]: the inhibition at 10 min, 3000 µM in [22] was determined as 62%.
